From US11197871B2, “Methods and materials for treating calcific aortic valve stenosis” (Mayo Foundation for Medical Education and Research, priority 2012, dated 2021)
Entries after “also recorded” stand apart in the source; their conditions may differ.

Experiments:
[1] = tested on: aortic valve interstitial cells; assay: BMP2-treated aortic valve interstitial cells with or without Ataciguat for 24 hours (pVASP239, Sp7); type: cell-based; details: in vitro
Experimental: Overexpression of DDAH1 reduces endogenous inhibitors of NOS, increases NO production, and increases sGC signaling, ultimately resulting in slower progression of CAVS.
To determine whether induction of sGC signaling reduced osteogenic signaling in vitro, aortic valve interstitial cells were treated with BMP2 in the presence or absence of Ataciguat (HMR1766, 5-Chloro-2-[[(5-chloro-2-thienyl)sulfonyl]amino]-N-[4-(4-morpholinylsulfonyl)phenyl]benzamide) for 24 hours.

[2] = tested on: aortic valve interstitial cells; assay: Western blotting of BMP, TGFβ and sGC signaling in valve interstitial cells treated with BMP2, TGFβ1 or vehicle, with or without Ataciguat, for 18 hours; type: cell-based, human and mouse; details: Ataciguat 1 μmol, 37° C.
Experimental: FIG. 4 is a graph plotting p-VASP^239 levels detected in aortic valve interstitial cells treated with BMP2 (100 ng/mL), TGFβ1 (10 ng/mL), or neither (control; CTRL) in the presence or absence of Ataciguat (1 μmol) for 18 hours at 37° C.
FIG. 5 is a graph plotting p-Smad1/5/8 levels detected in aortic valve interstitial cells treated with BMP2 (100 ng/mL), TGFβ1 (10 ng/mL), or neither (control; CTRL) in the presence or absence of Ataciguat (1 μmol) for 18 hours at 37° C.
FIG. 6 is a graph plotting Sp7 levels detected in aortic valve interstitial cells treated with BMP2 […], or neither (control; CTRL) in the presence or absence of Ataciguat (1 μmol) for 18 hours at 37° C.
FIG. 7 is a graph plotting p-Smad2 levels detected in aortic valve interstitial cells treated with BMP2 […], or neither (control; CTRL) in the presence or absence of Ataciguat (1 μmol) for 18 hours at 37° C.
Additional experiments were performed to confirm that Ataciguat activates sGC signaling, attenuates BMP2 signaling, attenuates BMP2 target induction, and attenuates fibrogenic signaling in valve interstitial cells. In brief, cells were maintained in Dulbecco's Modified Eagle's Medium (DMEM) with 20% fetal bovine serum (FBS) and expanded to confluence in 6 well plates in a standard 5% CO2 incubator at 37° C. Cells were then treated with BMP2 (100 ng/mL), TGFβ1 (10 ng/mL), or vehicle (phosphate buffered saline) in the absence or presence of Ataciguat (1 μmol) for 18 hours. Cells were lysed using standard protein lysis buffer containing protease and phosphatase inhibitors, and Western blotting was performed to evaluate changes in protein levels of BMP, TGFβ, and sGC signaling.

O=C(Nc1ccc(S(=O)(=O)N2CCOCC2)cc1)c1cc(Cl)ccc1NS(=O)(=O)c1ccc(Cl)s1 [Ataciguat, 5-Chloro-2-[[(5-chloro-2-thienyl)sulfonyl]amino]-N-[4-(4-morpholinylsulfonyl)phenyl]benzamide]
sGC signaling (indicated by pVASP239 levels) ([1]; FIG. 2A): activated sGC signaling
osteogenic signaling (BMP2-induced Sp7 expression) ([1]; FIG. 2B): profoundly suppressed osteogenic signaling
sGC signaling (p-VASP239 levels) ([2]; BMP2 100 ng/mL, TGFβ1 10 ng/mL or control, FIG. 4, replicated in human (HAV-001, HAV-002, HAV-003) and mouse (MAV1, MAV2, MAV4) cell lines): effectively activated sGC signaling
BMP2 signaling (p-Smad1/5/8 levels) ([2]; BMP2 100 ng/mL, TGFβ1 10 ng/mL or control, FIG. 5, replicated in human and mouse cell lines): attenuated canonical BMP2 signaling
BMP2 target induction (Sp7 levels) ([2]; BMP2, TGFβ1 or control, FIG. 6, replicated in human and mouse cell lines): attenuated BMP target induction; also recorded: attenuated BMP2 target induction
fibrogenic signaling (p-Smad2 levels) ([2]; BMP2, TGFβ1 or control, FIG. 7, replicated in human and mouse cell lines): partially attenuated fibrogenic signaling
